Data reported in ChEMBL document CHEMBL1201862, “PubChem BioAssay data set” (2004).
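Assay format: 96-well plates, 48-hour exposure. GI50 = concentration required for 50% inhibition of growth.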 Active and inactive are the calls of the source. No stated cut-off is given here; in the data, active = GI50 up to about 1.1 µM and inactive = higher.

Legend:
Assay in all cases: NCI-60 cell line screen, 48 h
786-0 = tested on: 786-0
A498 = tested on: A498
A549 = tested on: A549
ACHN = tested on: ACHN
BT-549 = tested on: BT-549
CAKI-1 = tested on: CAKI-1
CCRF-CEM = tested on: CCRF-CEM
COLO 205 = tested on: COLO 205
DU-145 = tested on: DU-145
EKVX = tested on: EKVX
HCC 2998 = tested on: HCC 2998
HCT-116 = tested on: HCT-116
HCT-15 = tested on: HCT-15
HL-60 = tested on: HL-60
HOP-62 = tested on: HOP-62
HOP-92 = tested on: HOP-92
HT-29 = tested on: HT-29
Hs-578T = tested on: Hs-578T
IGROV-1 = tested on: IGROV-1
K562 = tested on: K562
KM12 = tested on: KM12
LOX IMVI = tested on: LOX IMVI
M14 = tested on: M14
MCF7 = tested on: MCF7
MDA-MB-231 = tested on: MDA-MB-231
MDA-MB-435 = tested on: MDA-MB-435
MDA-N = tested on: MDA-N
MOLT-4 = tested on: MOLT-4
Malme-3M = tested on: Malme-3M
NCI-H226 = tested on: NCI-H226
NCI-H23 = tested on: NCI-H23
NCI-H460 = tested on: NCI-H460
NCI-H522 = tested on: NCI-H522
NCI/ADR-RES = tested on: NCI/ADR-RES
OVCAR-3 = tested on: OVCAR-3
OVCAR-4 = tested on: OVCAR-4
OVCAR-5 = tested on: OVCAR-5
OVCAR-8 = tested on: OVCAR-8
PC-3 = tested on: PC-3
RPMI-8226 = tested on: RPMI-8226
RXF 393 = tested on: RXF 393
SF-268 = tested on: SF-268
SF-295 = tested on: SF-295
SF-539 = tested on: SF-539
SK-MEL-28 = tested on: SK-MEL-28
SK-MEL-2 = tested on: SK-MEL-2
SK-MEL-5 = tested on: SK-MEL-5
SK-OV-3 = tested on: SK-OV-3
SN12C = tested on: SN12C
SNB-19 = tested on: SNB-19
SNB-75 = tested on: SNB-75
SR = tested on: SR
SW-620 = tested on: SW-620
T47D = tested on: T47D
TK-10 = tested on: TK-10
U-251 = tested on: U-251
UACC-257 = tested on: UACC-257
UACC-62 = tested on: UACC-62
UO-31 = tested on: UO-31

SMILES: COc1cc(C2S/C(=C/c3ccccc3)C(=O)N2c2cc(Cl)c(Cl)cc2Cl)cc(OC)c1OC (centres undefined)
- GI50 (786-0): 38.3 µM (inactive)
- GI50 (A498): 44.8 µM (inactive)
- GI50 (A549): 35.6 µM (inactive)
- GI50 (ACHN): 35.6 µM (inactive)
- GI50 (BT-549): 23.7 µM (inactive)
- GI50 (CAKI-1): > 40.8 µM (inactive)
- GI50 (CCRF-CEM): 21.5 µM (inactive)
- GI50 (COLO 205): 53.6 µM (inactive)
- GI50 (DU-145): 30.2 µM (inactive)
- GI50 (EKVX): 9.66 µM (inactive)
- GI50 (HCC 2998): 39.1 µM (inactive)
- GI50 (HCT-116): 23.5 µM (inactive)
- GI50 (HCT-15): 28.7 µM
- GI50 (HL-60): 20.4 µM (inactive)
- GI50 (HOP-62): 28.4 µM (inactive)
- GI50 (HOP-92): 13.7 µM (inactive)
- GI50 (HT-29): 46.2 µM (inactive)
- GI50 (Hs-578T): 9.27 µM (inactive)
- GI50 (IGROV-1): 23.9 µM (inactive)
- GI50 (K562): 29 µM (inactive)
- GI50 (KM12): 25.7 µM (inactive)
- GI50 (LOX IMVI): 24.2 µM (inactive)
- GI50 (M14): 37.5 µM (inactive)
- GI50 (MCF7): 30.4 µM (inactive)
- GI50 (MDA-MB-231): > 66.8 µM (inactive)
- GI50 (MDA-MB-435): 34 µM (inactive)
- GI50 (MDA-N): 50.5 µM (inactive)
- GI50 (MOLT-4): 25.2 µM (inactive)
- GI50 (Malme-3M): 26.2 µM (inactive)
- GI50 (NCI-H226): 20.6 µM (inactive)
- GI50 (NCI-H23): 43.2 µM (inactive)
- GI50 (NCI-H460): 31.5 µM (inactive)
- GI50 (NCI-H522): 16.9 µM (inactive)
- GI50 (NCI/ADR-RES): 30.6 µM (inactive)
- GI50 (OVCAR-3): 24.2 µM (inactive)
- GI50 (OVCAR-4): 52.6 µM (inactive)
- GI50 (OVCAR-5): 41.4 µM (inactive)
- GI50 (OVCAR-8): 40 µM (inactive)
- GI50 (PC-3): 26.8 µM (inactive)
- GI50 (RPMI-8226): 24.6 µM (inactive)
- GI50 (RXF 393): > 100 µM (inactive)
- GI50 (SF-268): 29.6 µM (inactive)
- GI50 (SF-295): 49.3 µM (inactive)
- GI50 (SF-539): 25.6 µM (inactive)
- GI50 (SK-MEL-28): > 64 µM (inactive)
- GI50 (SK-MEL-2): 41.3 µM (inactive)
- GI50 (SK-MEL-5): 22.5 µM (inactive)
- GI50 (SK-OV-3): > 70.5 µM (inactive)
- GI50 (SN12C): > 59.8 µM (inactive)
- GI50 (SNB-19): > 63.1 µM (inactive)
- GI50 (SNB-75): 2.56 µM (inactive)
- GI50 (SR): 25.3 µM (inactive)
- GI50 (SW-620): 47.6 µM (inactive)
- GI50 (T47D): > 50.8 µM (inactive)
- GI50 (TK-10): > 69.3 µM (inactive)
- GI50 (U-251): 44.4 µM (inactive)
- GI50 (UACC-257): 54.5 µM (inactive)
- GI50 (UACC-62): 27.5 µM (inactive)
- GI50 (UO-31): 26.7 µM (inactive)
